Where no end group is shown, it is not given here. The star is where a group is joined. Myristoyl = CCCCCCCCCCCCCC(=O)*
Test system: isolated rat hearts
Test: Myocardial ischemia/reperfusion (I/R) injury in isolated rat hearts (Langendorff, ex vivo)
Conditions: for Final Coronary Flow / Final Heart Rate / Final LVDP / Final LVEDP / Final LVESP / Final dP/dtmax / Final dP/dtmin: 50 min post-reperfusion; for Infarct Size: I(30 min)/R(50 min), infarct tissue weight/total tissue weight; for Initial Coronary Flow / Initial Heart Rate / Initial LVDP / Initial LVEDP / Initial LVESP / Initial dP/dtmax / Initial dP/dtmin: baseline before ischemia

YGRKKRRQRRRCCEAVSLKPT (not fully specified; cysteine pairing not given here) [TAT + PKCε-]
reduction of infarct size compared to control I/R hearts (10 μM): did not reduce infarct size
Final Coronary Flow (10 μM): 12 ± 4 mL/min
Final Heart Rate (10 μM): 242 ± 18 BPM
Final LVDP (10 μM): 37 ± 12 mmHg
Final LVEDP (10 μM): 63 ± 2 mmHg
Final LVESP (10 μM): 100 ± 13 mmHg
Final dP/dtmax (10 μM): 678 ± 223 mmHg/s
Final dP/dtmin (10 μM): −723 ± 84 mmHg/s
Infarct Size (10 μM): 18 ± 2%
Initial Coronary Flow (10 μM): 20 ± 2 mL/min
Initial Heart Rate (10 μM): 285 ± 10 BPM
Initial LVDP (10 μM): 86 ± 5 mmHg
Initial LVEDP (10 μM): 7 ± 2 mmHg
Initial LVESP (10 μM): 93 ± 3 mmHg
Initial dP/dtmax (10 μM): 2408 ± 126 mmHg/s
Initial dP/dtmin (10 μM): −1735 ± 149 mmHg/s

Myr-LSETKPAV (Myristoyl-LSETKPAV) [Myr + PKCε- Scram.]
Final Coronary Flow (10 μM): 8 ± 2 mL/min
Final Heart Rate (10 μM): 236 ± 11 BPM
Final LVDP (10 μM): 51 ± 9 mmHg
Final LVEDP (10 μM): 56 ± 8 mmHg
Final LVESP (10 μM): 107 ± 4 mmHg
Final dP/dtmax (10 μM): 958 ± 265 mmHg/s
Final dP/dtmin (10 μM): −727 ± 133 mmHg/s
Infarct Size (10 μM): 14 ± 3%
Initial Coronary Flow (10 μM): 19 ± 3 mL/min
Initial Heart Rate (10 μM): 278 ± 10 BPM
Initial LVDP (10 μM): 87 ± 4 mmHg
Initial LVEDP (10 μM): 9 ± 2 mmHg
Initial LVESP (10 μM): 96 ± 6 mmHg
Initial dP/dtmax (10 μM): 2307 ± 55 mmHg/s
Initial dP/dtmin (10 μM): −1571 ± 72 mmHg/s

Myr-YGRKKRRQRRRCCLSETKPAV (Myristoyl-YGRKKRRQRRRCCLSETKPAV; cysteine pairing not given here) [Myr + TAT + PKCε- Scram.]
Final Coronary Flow (1 nM): 7 ± 2 mL/min
Final Heart Rate (1 nM): 225 ± 1 BPM
Final LVDP (1 nM): 50 ± 11 mmHg
Final LVEDP (1 nM): 53 ± 4 mmHg
Final LVESP (1 nM): 103 ± 14 mmHg
Final dP/dtmax (1 nM): 993 ± 195 mmHg/s
Final dP/dtmin (1 nM): −760 ± 210 mmHg/s
Infarct Size (1 nM): 19 ± 2%
Initial Coronary Flow (1 nM): 15 ± 1 mL/min
Initial Heart Rate (1 nM): 278 ± 10 BPM
Initial LVDP (1 nM): 87 ± 1 mmHg
Initial LVEDP (1 nM): 6 ± 0.4 mmHg
Initial LVESP (1 nM): 92 ± 1 mmHg
Initial dP/dtmax (1 nM): 2267 ± 87 mmHg/s
Initial dP/dtmin (1 nM): −1490 ± 82 mmHg/s
Final Coronary Flow (100 nM): 12 ± 4 mL/min
Final Heart Rate (100 nM): 295 ± 29 BPM
Final LVDP (100 nM): 36 ± 12 mmHg
Final LVEDP (100 nM): 57 ± 10 mmHg
Final LVESP (100 nM): 93 ± 9 mmHg
Final dP/dtmax (100 nM): 706 ± 223 mmHg/s
Final dP/dtmin (100 nM): −677 ± 222 mmHg/s
Infarct Size (100 nM): 14 ± 3%
Initial Coronary Flow (100 nM): 21 ± 6 mL/min
Initial Heart Rate (100 nM): 271 ± 16 BPM
Initial LVDP (100 nM): 91 ± 5 mmHg
Initial LVEDP (100 nM): 9 ± 2 mmHg
Initial LVESP (100 nM): 100 ± 4 mmHg
Initial dP/dtmax (100 nM): 2300 ± 189 mmHg/s
Initial dP/dtmin (100 nM): −1545 ± 117 mmHg/s
Final Coronary Flow (10 μM): 3 ± 0.1 mL/min
Final Heart Rate (10 μM): 684 ± 167 BPM
Final LVDP (10 μM): 3 ± 2 mmHg
Final LVEDP (10 μM): 70 ± 10 mmHg
Final LVESP (10 μM): 72 ± 8 mmHg
Final dP/dtmax (10 μM): 27 ± 9 mmHg/s
Final dP/dtmin (10 μM): −24 ± 8 mmHg/s
Infarct Size (10 μM): 16 ± 6%
Initial Coronary Flow (10 μM): 18 ± 1 mL/min
Initial Heart Rate (10 μM): 275 ± 12 BPM
Initial LVDP (10 μM): 86 ± 1 mmHg
Initial LVEDP (10 μM): 6 ± 1 mmHg
Initial LVESP (10 μM): 92 ± 0.3 mmHg
Initial dP/dtmax (10 μM): 2309 ± 69 mmHg/s
Initial dP/dtmin (10 μM): −1604 ± 71 mmHg/s

Source: patent US20230125482A1, “PROTEIN KINASE C MODULATORS” (Young Therapeutics, LLC, priority 2020, published 2023)
